8 molecules from PubChem BioAssay (NCI) can be followed below.

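Following 48 hours of exposure in 96-well plates, responses at five concentrations were used to interpolate endpoints linearly. At the TGI there is no net growth.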

Among the test systems are 786-0 renal; A549 NSCLC; ACHN renal; COLO 205 colon; DU-145 prostate; HCT-116 colon; HCT-15 colon; HOP-62 NSCLC; KM12 colon; MDA-N; MOLT-4 leukemia; SF-539 CNS; SK-MEL-2 melanoma; SK-OV-3 ovarian; SW-620 colon; UACC-257 melanoma; UO-31 renal; CAKI-1 renal; SF-268 CNS.
Common to all, as to experiment: NCI tumour cell line growth inhibition, 48 h

Consider `N#CCCN(CCC#N)c1ccc(/C=C2\N=C(c3ccccc3)N(c3ccccc3)C2=O)cc1`, for which the TGI in the assay on 786-0 renal, in the assay on A549 NSCLC, in the assay with ACHN renal, in the assay with COLO 205 colon, in the assay with DU-145 prostate and with HCT-116 colon was more than 100 µM each time. Also, the TGI in the assay with HCT-15 colon, in the assay on HOP-62 NSCLC, in the assay on KM12 colon, in the assay with MDA-N, in the assay with MOLT-4 leukemia and in the assay on SF-539 CNS was more than 100 µM in each case. The TGI with SK-MEL-2 melanoma, in the assay on SK-OV-3 ovarian, in the assay with SW-620 colon, in the assay on UACC-257 melanoma and with UO-31 renal was more than 100 µM throughout.
`CC1CC/C(=C\c2ccc(F)cc2)C2=C1C(c1ccc(F)cc1)n1c(s/c(=C\c3ccc(Cl)cc3)c1=O)=N2` (centres undefined): the TGI with 786-0 renal, in the assay on A549 NSCLC, with ACHN renal, in the assay on CAKI-1 renal, with DU-145 prostate and in the assay on HCT-116 colon was more than 100 µM throughout. For the same molecule, the TGI in the assay on HCT-15 colon, in the assay on HOP-62 NSCLC, in the assay on KM12 colon, in the assay with MDA-N, in the assay on MOLT-4 leukemia and in the assay with SF-268 CNS was more than 100 µM throughout. In addition, the TGI with SK-MEL-2 melanoma, with SK-OV-3 ovarian, in the assay with SW-620 colon and in the assay with UACC-257 melanoma was more than 100 µM each time.
For `Fc1ccc(C(OCCN2CCC3CCC(C2)N3C/C=C/c2cccnc2)c2ccc(F)cc2)cc1` (centres undefined), the TGI with 786-0 renal is 17.8 µM; in the assay on A549 NSCLC, 25.4 µM; in the assay with ACHN renal it was 27.3 µM; in the assay with CAKI-1 renal, 26.1 µM; in the assay with COLO 205 colon it was 2.68 µM; with DU-145 prostate, 33.1 µM. For the same molecule, the TGI in the assay with HCT-116 colon worked out at 19 µM; in the assay with HCT-15 colon, 21.6 µM; in the assay with HOP-62 NSCLC it was 31 µM; in the assay with KM12 colon, 26.3 µM; in the assay on MDA-N, 23.8 µM; in the assay with MOLT-4 leukemia it was 14.9 µM. For the same molecule, the TGI worked out at 26.2 µM in the assay with SF-268 CNS; 25.2 µM in the assay with SF-539 CNS; 26.5 µM in the assay on SK-MEL-2 melanoma; 29.3 µM with SK-OV-3 ovarian; 23.1 µM with SW-620 colon; 12.3 µM with UACC-257 melanoma. In the assay on UO-31 renal, this molecule yielded a TGI of 6.09 µM.
As for `COC(=O)c1ccccc1Nc1ccccc1C(=O)OC`, the TGI in the assay with 786-0 renal, in the assay with A549 NSCLC, with ACHN renal, in the assay on CAKI-1 renal, with COLO 205 colon and in the assay on DU-145 prostate was more than 100 µM each time. Further, the TGI in the assay with HCT-116 colon, in the assay on HCT-15 colon, with HOP-62 NSCLC, with KM12 colon, in the assay on MDA-N and in the assay with MOLT-4 leukemia was more than 100 µM each time. Moreover, the TGI in the assay on SF-268 CNS, in the assay on SF-539 CNS, in the assay with SK-MEL-2 melanoma, in the assay on SK-OV-3 ovarian, in the assay on SW-620 colon and in the assay with UACC-257 melanoma was more than 100 µM each time.
In the case of `CCOC(=O)c1c[nH]c2cc3c(cc2c1=O)CCS3`, the TGI in the assay on 786-0 renal, in the assay with A549 NSCLC, in the assay with ACHN renal, in the assay with CAKI-1 renal, in the assay with COLO 205 colon and with DU-145 prostate was more than 100 µM throughout. The TGI in the assay with HCT-116 colon, in the assay with HCT-15 colon, with HOP-62 NSCLC, in the assay with KM12 colon, in the assay on MDA-N and in the assay on MOLT-4 leukemia was more than 100 µM in each case. Also, the TGI with SF-268 CNS, in the assay with SF-539 CNS, in the assay on SK-MEL-2 melanoma, in the assay with SK-OV-3 ovarian, with SW-620 colon and with UACC-257 melanoma was more than 100 µM each time. Also, the TGI in the assay with UO-31 renal is more than 100 µM.
For `CC(C)[C@H]1NC(=O)[C@H]2N=C(O[C@@H]2C)[C@@H]2CCCN2C(=O)[C@H](Cc2ccccc2)NC(=O)[C@@H]2COC(=N2)[C@@H](Cc2ccccc2)NC(=O)[C@@H]2COC1=N2`, the TGI in the assay on 786-0 renal, with A549 NSCLC, with ACHN renal, with CAKI-1 renal, with COLO 205 colon and with DU-145 prostate was more than 100 µM throughout. Moreover, the TGI with HCT-116 colon, with HCT-15 colon, in the assay on HOP-62 NSCLC, in the assay on KM12 colon, with MDA-N and in the assay with MOLT-4 leukemia was more than 100 µM in each case. For the same molecule, the TGI in the assay with SF-268 CNS, in the assay with SF-539 CNS, in the assay with SK-MEL-2 melanoma, in the assay on SK-OV-3 ovarian, in the assay on SW-620 colon and in the assay with UACC-257 melanoma was more than 100 µM each time. For the same molecule, the TGI in the assay on UO-31 renal was more than 100 µM.
Turning to `CCOC(=O)C(C(=O)OCC)C(NC(=O)Nc1cc(C(F)(F)F)ccc1OC)(C(F)(F)F)C(F)(F)F`, the TGI is 55.8 µM in the assay with 786-0 renal; more than 100 µM in the assay with A549 NSCLC; more than 100 µM in the assay with ACHN renal; 91.5 µM in the assay on CAKI-1 renal; 32.3 µM in the assay with COLO 205 colon; more than 100 µM in the assay on DU-145 prostate. Further, the TGI in the assay on HCT-116 colon is more than 100 µM; in the assay with HCT-15 colon, more than 100 µM; in the assay with HOP-62 NSCLC it was 56.6 µM; in the assay on KM12 colon it was 66.1 µM; in the assay on MDA-N it was more than 100 µM; with MOLT-4 leukemia, 68.6 µM. Besides, the TGI is more than 100 µM in the assay on SF-268 CNS; 36.2 µM in the assay on SF-539 CNS; more than 100 µM in the assay on SK-OV-3 ovarian; more than 100 µM in the assay with SW-620 colon; 94.1 µM in the assay on UACC-257 melanoma; 39.5 µM in the assay with UO-31 renal.
As for `Cc1ccc(S(=O)(=O)NC(=O)NCC(=O)O)cc1`, the TGI with 786-0 renal, with A549 NSCLC, with ACHN renal, with COLO 205 colon, with DU-145 prostate and with HCT-116 colon was more than 100 µM throughout. The TGI in the assay on HCT-15 colon, in the assay on HOP-62 NSCLC, in the assay on KM12 colon, in the assay with MDA-N, in the assay with MOLT-4 leukemia and in the assay with SF-268 CNS was more than 100 µM each time. Also, the TGI in the assay with SF-539 CNS, with SK-MEL-2 melanoma, in the assay on SK-OV-3 ovarian, in the assay on SW-620 colon, with UACC-257 melanoma and in the assay on UO-31 renal was more than 100 µM throughout.
